Experimental findings from patent US20250214991A1 (Oncopia Therapeutics, Inc. d/b/a/ SK Life Science Labs, priority 2022, published 2025) are described below.

The target of experiment [1] is T1, IKZF2 (Homo sapiens (Human), UniProt Q96SW2+Q9UKS7). The experiment can be described thus: In vitro IKZF2 FACS Assay in Jurkat cells. Format: cell-based. The settings on record: 24 hrs; for DC50: half maximal degradation concentration; for Dmax: maximal degradation percentage. As to the method:
In vitro IKZF2 FACS Assay
DC50, A: <1 nM; B: 1-10 nM; C: 10-100 nM; D: 100-1000 nM; E: >1000 nM. Dmax, A: >80%; B: 60-80%; C: 40-60%; D: 20-40%; E: <20%.

For experiment [2], the target named is T1, IKZF2. Nature of the experiment: In vitro IKZF2 HiBit Assay (HEK293T Flp-in-HiBiT cells). The settings on record: HEK293T Flp-in-HiBiT cells, 6 hrs incubation; for DC50: read-out: IKZF2 HiBit DC50; for Dmax: HEK-293T, read-out: IKZF2 HiBit Dmax (%). Format: cell-based. A digest of the protocol: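 HEK293T Flp-in cells carrying an endogenous N-terminal HiBiT tag on IKZF2 were exposed to compound for 6 h at 0.1% DMSO. The dilution series was 11 doses at 3-fold, diluted from 1 mM. Nano-Glo HiBiT lytic luminescence, normalized to DMSO, gave DC50 for 50% degradation and Dmax across the concentration range, both reported in letter bins.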
A general note: With HiBiT, luminescence reflects the tagged protein that the partner subunit can reach.

A further experiment addresses IKZF1 (Homo sapiens (Human), UniProt Q13422+Q96SW2). The experiment can be described thus: In vitro IKZF1 HiBit Assay (HEK293T Flp-in-HiBiT-IKZF1 stable cell line). Format: cell-based. The settings on record: HEK293T Flp-in-HiBiT-IKZF1 stable cell line, 6 hrs incubation; for DC50: read-out: IKZF1 HiBit DC50; for Dmax: HEK-293T, read-out: IKZF1 HiBit Dmax (%). A digest of the protocol:
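HEK293T Flp-in cells carrying N-terminal HiBiT-tagged IKZF1 were exposed to compound (0.1% DMSO) for 6 h at 3000 cells/well. HiBiT luminescence was read after lytic LgBiT detection. DC50 and Dmax were taken from DMSO-normalized dose-response curves.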

A further experiment has as its target CRBN/DDB1 (Homo sapiens (Human), UniProt Q96SW2). Nature of the experiment: IC50 measurements for binding to CRBN/DDB1 (HTRF). The following applies: His tagged CRBN+DDB, Cy5-labeled Thalidomide probe, one hour. The essentials: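 HTRF competition binding with 2 nM His-tagged CRBN-DDB1 complex, 60 nM Cy5-thalidomide probe and 0.4 nM anti-His Tb cryptate in 50 mM HEPES pH 7.5, 1 mM TCEP, 0.01% Brij-35, 50 mM NaCl, 0.1% BSA. Read after 1 h at room temperature; IC50 from four-parameter dose-response fit.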
In general terms: In TR-FRET formats the signal depends on donor and acceptor labels being close together.

T1 sequence (Q9UKS7 whole entry): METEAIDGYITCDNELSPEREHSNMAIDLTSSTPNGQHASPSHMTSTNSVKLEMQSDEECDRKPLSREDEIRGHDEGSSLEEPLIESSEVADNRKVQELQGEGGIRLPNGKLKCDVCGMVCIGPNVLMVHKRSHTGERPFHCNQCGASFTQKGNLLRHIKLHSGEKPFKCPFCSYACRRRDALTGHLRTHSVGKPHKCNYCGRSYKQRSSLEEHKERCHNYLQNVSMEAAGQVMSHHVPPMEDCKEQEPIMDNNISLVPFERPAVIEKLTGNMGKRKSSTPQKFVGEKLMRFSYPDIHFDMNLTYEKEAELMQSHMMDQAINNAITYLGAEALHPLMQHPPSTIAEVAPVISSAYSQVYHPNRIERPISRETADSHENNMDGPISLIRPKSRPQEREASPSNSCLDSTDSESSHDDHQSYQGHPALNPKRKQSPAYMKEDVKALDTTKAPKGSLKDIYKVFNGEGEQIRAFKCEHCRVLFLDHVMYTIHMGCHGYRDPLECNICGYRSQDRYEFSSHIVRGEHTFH
T1 sequence (Q96SW2 whole entry): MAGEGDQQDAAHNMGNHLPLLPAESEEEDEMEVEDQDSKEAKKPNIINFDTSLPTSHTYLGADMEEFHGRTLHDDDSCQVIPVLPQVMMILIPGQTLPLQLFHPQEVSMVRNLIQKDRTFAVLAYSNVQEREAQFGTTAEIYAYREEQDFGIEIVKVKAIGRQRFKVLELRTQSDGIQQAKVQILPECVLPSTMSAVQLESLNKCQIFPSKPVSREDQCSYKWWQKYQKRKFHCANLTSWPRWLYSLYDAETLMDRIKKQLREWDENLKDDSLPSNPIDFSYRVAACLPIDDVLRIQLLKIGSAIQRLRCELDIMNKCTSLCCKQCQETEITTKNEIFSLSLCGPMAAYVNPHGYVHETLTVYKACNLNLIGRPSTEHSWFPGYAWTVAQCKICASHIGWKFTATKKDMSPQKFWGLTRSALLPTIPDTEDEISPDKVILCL
T1 sequence (Q16531 2-1140 partner): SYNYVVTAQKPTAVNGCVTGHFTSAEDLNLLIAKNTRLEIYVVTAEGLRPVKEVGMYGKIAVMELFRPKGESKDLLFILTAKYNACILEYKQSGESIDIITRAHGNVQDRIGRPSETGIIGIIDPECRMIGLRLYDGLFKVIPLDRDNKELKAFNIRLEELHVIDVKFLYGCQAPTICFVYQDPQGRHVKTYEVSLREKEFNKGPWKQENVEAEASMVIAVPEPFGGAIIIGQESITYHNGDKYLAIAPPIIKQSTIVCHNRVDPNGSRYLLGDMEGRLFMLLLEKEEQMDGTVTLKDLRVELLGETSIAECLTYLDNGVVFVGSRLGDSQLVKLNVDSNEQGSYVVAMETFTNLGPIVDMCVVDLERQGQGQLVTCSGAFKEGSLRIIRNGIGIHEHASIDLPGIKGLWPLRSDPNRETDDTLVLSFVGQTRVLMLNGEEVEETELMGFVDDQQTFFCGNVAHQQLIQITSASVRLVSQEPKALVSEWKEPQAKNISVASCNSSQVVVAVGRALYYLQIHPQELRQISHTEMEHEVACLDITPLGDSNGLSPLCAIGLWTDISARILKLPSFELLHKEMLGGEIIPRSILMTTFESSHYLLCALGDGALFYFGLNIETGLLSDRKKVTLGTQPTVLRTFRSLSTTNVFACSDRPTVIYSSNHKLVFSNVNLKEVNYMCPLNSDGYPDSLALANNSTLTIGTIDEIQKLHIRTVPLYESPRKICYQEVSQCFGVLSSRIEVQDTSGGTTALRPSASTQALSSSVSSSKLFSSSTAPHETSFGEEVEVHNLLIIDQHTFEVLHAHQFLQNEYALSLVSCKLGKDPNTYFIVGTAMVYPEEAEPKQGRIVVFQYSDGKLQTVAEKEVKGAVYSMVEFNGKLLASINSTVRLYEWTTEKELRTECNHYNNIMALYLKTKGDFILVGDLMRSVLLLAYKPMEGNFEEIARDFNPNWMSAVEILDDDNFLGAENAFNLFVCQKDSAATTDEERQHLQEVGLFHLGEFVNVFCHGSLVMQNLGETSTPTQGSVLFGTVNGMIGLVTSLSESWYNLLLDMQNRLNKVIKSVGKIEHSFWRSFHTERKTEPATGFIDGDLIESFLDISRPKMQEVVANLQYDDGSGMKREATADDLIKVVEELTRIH
Sequence of IKZF1 (Q13422 whole entry): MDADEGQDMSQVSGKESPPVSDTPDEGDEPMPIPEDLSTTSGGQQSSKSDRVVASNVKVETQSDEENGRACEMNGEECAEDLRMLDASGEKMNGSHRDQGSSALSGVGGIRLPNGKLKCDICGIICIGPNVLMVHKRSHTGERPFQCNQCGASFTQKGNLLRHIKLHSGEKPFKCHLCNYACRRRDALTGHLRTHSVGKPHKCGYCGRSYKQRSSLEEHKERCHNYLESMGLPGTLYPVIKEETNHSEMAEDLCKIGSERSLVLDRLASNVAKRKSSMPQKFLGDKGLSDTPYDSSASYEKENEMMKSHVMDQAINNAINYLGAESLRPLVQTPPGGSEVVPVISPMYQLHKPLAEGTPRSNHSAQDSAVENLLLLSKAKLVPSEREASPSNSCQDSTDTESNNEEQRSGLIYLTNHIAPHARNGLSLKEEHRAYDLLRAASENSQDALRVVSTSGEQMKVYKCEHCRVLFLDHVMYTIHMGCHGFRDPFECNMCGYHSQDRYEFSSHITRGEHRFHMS
Sequence of IKZF1 (Q96SW2 whole entry): as the sequence (Q96SW2 whole entry) above
Sequence of IKZF1 (Q16531 2-1140 partner): as the sequence (Q16531 2-1140 partner) above
Sequence of CRBN/DDB1 (Q96SW2 whole entry, species assumed): as the sequence (Q96SW2 whole entry) above
Sequence of CRBN/DDB1 (Q16531 whole entry partner, species assumed): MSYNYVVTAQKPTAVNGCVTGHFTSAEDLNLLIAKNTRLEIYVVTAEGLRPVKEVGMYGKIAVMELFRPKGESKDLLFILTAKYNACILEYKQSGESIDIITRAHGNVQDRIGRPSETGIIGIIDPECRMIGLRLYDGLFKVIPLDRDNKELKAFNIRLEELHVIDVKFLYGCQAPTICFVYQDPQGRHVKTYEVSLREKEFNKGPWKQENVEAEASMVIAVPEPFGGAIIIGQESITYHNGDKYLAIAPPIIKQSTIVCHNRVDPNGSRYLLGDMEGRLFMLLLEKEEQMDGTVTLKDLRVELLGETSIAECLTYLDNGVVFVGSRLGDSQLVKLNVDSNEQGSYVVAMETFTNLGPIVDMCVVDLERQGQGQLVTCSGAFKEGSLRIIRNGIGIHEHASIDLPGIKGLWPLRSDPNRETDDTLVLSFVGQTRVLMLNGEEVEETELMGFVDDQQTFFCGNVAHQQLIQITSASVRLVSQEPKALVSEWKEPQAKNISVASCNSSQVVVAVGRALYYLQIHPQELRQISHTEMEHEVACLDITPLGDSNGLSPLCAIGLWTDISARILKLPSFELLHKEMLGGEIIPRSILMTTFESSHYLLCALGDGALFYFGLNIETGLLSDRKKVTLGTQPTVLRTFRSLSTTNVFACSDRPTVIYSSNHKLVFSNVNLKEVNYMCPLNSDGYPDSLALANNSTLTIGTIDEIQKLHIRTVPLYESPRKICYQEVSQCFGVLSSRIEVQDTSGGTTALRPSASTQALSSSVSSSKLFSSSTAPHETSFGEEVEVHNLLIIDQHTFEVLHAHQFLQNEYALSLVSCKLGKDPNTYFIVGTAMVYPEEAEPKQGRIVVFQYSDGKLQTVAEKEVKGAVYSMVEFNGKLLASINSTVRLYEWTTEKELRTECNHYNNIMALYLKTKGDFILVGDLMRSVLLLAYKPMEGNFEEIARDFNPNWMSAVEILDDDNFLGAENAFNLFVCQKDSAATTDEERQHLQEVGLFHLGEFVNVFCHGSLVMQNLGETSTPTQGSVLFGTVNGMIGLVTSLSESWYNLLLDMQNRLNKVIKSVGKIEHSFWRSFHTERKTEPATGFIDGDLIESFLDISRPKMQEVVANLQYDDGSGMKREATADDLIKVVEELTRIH

Turning to `Nc1n[nH]c2c(CN3CCCC3)cc(-c3ccc4c(c3)CN(C3CCC(=O)NC3=O)C4=O)nc12` (centres unmarked) [Example 151, 3-(5-(3-amino-7-(pyrrolidin-1-ylmethyl)-1H-pyrazolo[4,3-b]pyridin-5-yl)-1-oxoisoindolin-2-yl) piperidine-2,6-dione], the DC50 at IKZF2 [1] was 1 to 10 nM; on IKZF2 [2], 1 to 10 nM; on IKZF1, over 10000 nM. Also, the figures for the Dmax on IKZF2 [1], on IKZF2 [2] and at IKZF1 were over 80%, over 80% and under 20%, respectively.

With `Cn1cnc2c(CN3CCCC3)cc(-c3ccc4c(c3)CN(C3CCC(=O)NC3=O)C4=O)nc21` (centres unmarked) [Example 180, 3-(5-(3-methyl-7-(pyrrolidin-1-ylmethyl)-3H-imidazo[4,5-b]pyridin-5-yl)-1-oxoisoindolin-2-yl) piperidine-2,6-dione], the DC50 on IKZF2 [1] lay in the range of 10 to 100 nM; at IKZF2 [2] it was 1 to 10 nM; on IKZF1, 1 to 10 nM. In addition, the Dmax at IKZF2 [1] is over 80%; at IKZF2 [2], over 80%; on IKZF1, 20 to 40%.

For the molecule `CNc1n[nH]c2c(CN3CCCC3)cc(-c3ccc4c(c3)CN(C3CCC(=O)NC3=O)C4=O)nc12` (centres unmarked) [Example 181, 3-(5-(3-(methylamino)-7-(pyrrolidin-1-ylmethyl)-1H-pyrazolo[4,3-b]pyridin-5-yl)-1-oxoisoindolin-2-yl) piperidine-2,6-dione], the DC50 at IKZF2 [1] was 1 to 10 nM; on IKZF2 [2], 1 to 10 nM; at IKZF1 it was 10 to 100 nM. Also, the Dmax on IKZF2 [1] is over 80%; at IKZF2 [2], over 80%; at IKZF1 it was 40 to 60%.

On to `O=C1CCC(N2Cc3cc(-c4nc(CN5CCCC5)c5cc[nH]c5n4)ccc3C2=O)C(=O)N1` (centres unmarked) [Example 182, 3-(1-oxo-5-(4-(pyrrolidin-1-ylmethyl)-7H-pyrrolo[2,3-d]pyrimidin-2-yl)isoindolin-2-yl) piperidine-2,6-dione], for which the DC50 is 10 to 100 nM at IKZF2 [1], 1 to 10 nM at IKZF2 [2] and over 10000 nM at IKZF1. In addition, the Dmax at IKZF2 [1] was 60 to 80%; on IKZF2 [2], over 80%; on IKZF1, under 20%.

Usually IC50 stands for the concentration at which inhibition is half-maximal. Take `Cn1ccc2c(CN3CC(O)C3)cc(-c3ccc4c(c3)CN(C3CCC(=O)NC3=O)C4=O)nc21` (centres unmarked) [Example 306, 3-(5-(4-((3-hydroxyazetidin-1-yl)methyl)-1-methyl-1H-pyrrolo[2,3-b]pyridin-6-yl)-1-oxoisoindolin-2-yl) piperidine-2,6-dione]: on CRBN/DDB1, the IC50 fell in the range of 100 to 500 nM. Further, at IKZF2 [2], the DC50 fell in the range of 10 to 100 nM and the Dmax was over 80%. In addition, on IKZF1, the DC50 fell in the range of 100 to 1000 nM and the Dmax fell in the range of 20 to 40%.

`Cn1ccc2c(CN3CC4CCC(C4)C3)cc(-c3ccc4c(c3)CN(C3CCC(=O)NC3=O)C4=O)nc21` (centres unmarked) [Example 308, 3-(5-(4-((3-azabicyclo[3.2.1]octan-3-yl)methyl)-1-methyl-1H-pyrrolo[2,3-b]pyridin-6-yl)-1-oxoisoindolin-2-yl) piperidine-2,6-dione] gave an IC50 on CRBN/DDB1 of 100 to 500 nM. For the same molecule, at IKZF2 [2], the DC50 was 1 to 10 nM and the Dmax is over 80%. At IKZF1, the DC50 lay within 1 to 10 nM and the Dmax is 20 to 40%.

For the molecule `Cn1ccc2c(CN3CCC(C#N)CC3)cc(-c3ccc4c(c3)CN(C3CCC(=O)NC3=O)C4=O)nc21` (centres unmarked) [Example 309, 1-((6-(2-(2,6-dioxopiperidin-3-yl)-1-oxoisoindolin-5-yl)-1-methyl-1H-pyrrolo[2,3-b]pyridin-4-yl)methyl) piperidine-4-carbonitrile], the IC50 on CRBN/DDB1 lay in the range of 1000 to 5000 nM. Also, at IKZF2 [2], the DC50 lay in the range of 1 to 10 nM and the Dmax was over 80%. Also, at IKZF1, the DC50 was in the range of 1000 to 10000 nM and the Dmax is 20 to 40%.

In turn, `Cn1ncc2nc(-c3ccc4c(c3)CN(C3CCC(=O)NC3=O)C4=O)cc(CN3CCCC3)c21` (centres unmarked) [Example 310, 3-(5-(1-methyl-7-(pyrrolidin-1-ylmethyl)-1H-pyrazolo[4,3-b]pyridin-5-yl)-1-oxoisoindolin-2-yl) piperidine-2,6-dione] displayed an IC50 on CRBN/DDB1 of 500 to 1000 nM. The DC50 is under 1 nM at IKZF2 [2] and over 10000 nM at IKZF1. Further, the Dmax at IKZF2 [2] is over 80%; on IKZF1, under 20%.

The molecule `CN1C2CCC1CN(Cc1cc(-c3ccc4c(c3)CN(C3CCC(=O)NC3=O)C4=O)nc3c1ccn3C)C2` (centres unmarked) [Example 311, 3-(5-(1-methyl-4-((8-methyl-3,8-diazabicyclo[3.2.1]octan-3-yl)methyl)-1H-pyrrolo[2,3-b]pyridin-6-yl)-1-oxoisoindolin-2-yl) piperidine-2,6-dione] returned an IC50 on CRBN/DDB1 of 500 to 1000 nM. The DC50 on IKZF2 [2] was 1 to 10 nM; at IKZF1, over 10000 nM. The values for the Dmax on IKZF2 [2] and at IKZF1 were 60 to 80% and under 20%, respectively.

`O=C1CCC(N2Cc3cc(-c4ncn5ccc(CN6CCCC6)cc45)ccc3C2=O)C(=O)N1` (centres unmarked) [Example 312, 3-(1-oxo-5-(7-(pyrrolidin-1-ylmethyl)imidazo[1,5-a]pyridin-1-yl)isoindolin-2-yl) piperidine-2,6-dione] registered an IC50 at CRBN/DDB1 of 1000 to 5000 nM. For the same molecule, the figures for the DC50 at IKZF2 [2] and on IKZF1 were 10 to 100 nM and over 10000 nM, respectively. The Dmax on IKZF2 [2] was 20 to 40%; at IKZF1, under 20%.

The molecule `Cn1ncc2c(CN3CCCC3)cc(-c3ccc4c(c3)CN(C3CCC(=O)NC3=O)C4=O)nc21` (centres unmarked) [Example 313, 3-(5-(1-methyl-4-(pyrrolidin-1-ylmethyl)-1H-pyrazolo[3,4-b]pyridin-6-yl)-1-oxoisoindolin-2-yl) piperidine-2,6-dione] showed a half-maximal inhibitory concentration (IC50) on CRBN/DDB1 of 1000 to 5000 nM. Moreover, on IKZF2 [2], the DC50 is under 1 nM and the Dmax is over 80%. Besides, at IKZF1, the DC50 was 10 to 100 nM and the Dmax fell in the range of 20 to 40%.

With `Cn1cc2c(CN3CCCC3)cc(-c3ccc4c(c3)CN(C3CCC(=O)NC3=O)C4=O)nc2n1` (centres unmarked) [Example 315, 3-(5-(2-methyl-4-(pyrrolidin-1-ylmethyl)-2H-pyrazolo[3,4-b]pyridin-6-yl)-1-oxoisoindolin-2-yl) piperidine-2,6-dione], at CRBN/DDB1, the IC50 lay within 100 to 500 nM. Besides, at IKZF2 [2], the DC50 was in the range of 10 to 100 nM and the Dmax is over 80%. For the same molecule, on IKZF1, the DC50 fell in the range of 10 to 100 nM and the Dmax was 20 to 40%.

At CRBN/DDB1, `O=C1CCC(N2Cc3cc(-c4cc(CN5CCCC5)c5cn(C6CCC6)nc5n4)ccc3C2=O)C(=O)N1` (centres unmarked) [Example 316, 3-(5-(2-cyclobutyl-4-(pyrrolidin-1-ylmethyl)-2H-pyrazolo[3,4-b]pyridin-6-yl)-1-oxoisoindolin-2-yl) piperidine-2,6-dione] showed a 50% inhibitory concentration (IC50) of 100 to 500 nM. Also, on IKZF2 [2], the DC50 fell in the range of 1 to 10 nM and the Dmax was over 80%. Besides, at IKZF1, the DC50 is 10 to 100 nM and the Dmax lay in the range of 20 to 40%.

Take `O=C1CCC(N2Cc3cc(-c4cc(CN5CCCC5)c5cn(C6COC6)nc5n4)ccc3C2=O)C(=O)N1` (centres unmarked) [Example 317, 3-(5-(2-(oxetan-3-yl)-4-(pyrrolidin-1-ylmethyl)-2H-pyrazolo[3,4-b]pyridin-6-yl)-1-oxoisoindolin-2-yl) piperidine-2,6-dione]: on CRBN/DDB1, the IC50 is 100 to 500 nM. Besides, at IKZF2 [2], the DC50 fell in the range of 1 to 10 nM and the Dmax lay in the range of 60 to 80%. On IKZF1, the DC50 is over 10000 nM and the Dmax is under 20%.
